# Results published in patent publication US12162892B2, “CD16a binding agents and uses thereof” (KLEO PHARMACEUTICALS, INC., priority 2018, dated 2024).
# Several values for one entry are separate records, joined by “and”; a condition that tells them apart may be missing. Equal values may be shown once.
# Columns and labels:
# primary monocytes = assay: ADCP assay using fresh primary monocytes; type: cell-based, human; conditions: beads loaded with test compound at 50 uM; 37C for 18 hrs
# Description: (§1) Biotinylated fluorescent beads (Invitrogen, cat #P35372) were thoroughly mixed by vortexing for 1 min. Ten microliters of supplied bead suspension per treatment type were dispensed in Eppendorf tubes, and washed with 1 ml PBS […], then re-suspended in 500 uL of 1% BSA in PBS. Test compounds were added to bead suspensions to a final concentration of 50 uM, and biotinylated human IgG whole molecule (Rockland 009-0602) final concentration of 20 ug/mL.
# (§2) Tubes were incubated at room temperature for 1 hr on a rocking platform.
# (§3) Following incubation, beads were pelleted in a microcentrifuge at 12,000 g for 5 minutes at room temperature. Supernatants were carefully aspirated and beads were washed 5 times by resuspending in 1 ml of PBS 1% BSA, and centrifuging as described above. Finally, beads were resuspended in 500 ul of PBS 1% BSA and used in ADCP assay.
# PBMC, freshly isolated from whole blood (Bioreclamation IVT0) using Ficoll-Paque density centrifugation were resuspended in serum-free, supplemented RPMI at 2×10^6 cells/mL.
# Ten milliliters of the resulting cell suspension was seeded into 75-cm^2 tissue culture flask (Denville Scientific TC9341) and incubated 2-3 hr at 37° C. 5% CO2 to allow cell adhesion. Following incubation, media was decanted and surface of the flask was carefully washed twice, each time with 10 ml serum-free, supplemented RPMI to remove any residual non-adherent cells. To remove adherent cells, 10 mL of ice-cold 2.5 mM EDTA/PBS solution was added for 10 min on ice. Cells were transferred to a 15-ml conical tube and centrifuge 10 min at 300×g, room temperature, to remove the EDTA/PBS solution. Monocytes were then resuspended in RPMI 10% FCS at 5×10^5 cells/mL to be used in ADCP assay. Monocyte purity was assessed by staining cells with antibodies to human CD3 FITC (Biolegend 300306), CD19 PeCy7 (Biolegend 302216), CD14 BV421 (BD Biosciences, 565283), and CD16 (Biolegend 302046).
# (§4) Monocytes or THP-1 cells (TIB-202 ATCC) were seeded into 96 well round bottom 96 well plates at the density of 10^5 cells per well in 200 ul, and 10 uL of fluorescent bead suspension prepared as described above was added to each well. Well contents were mixed by pipetting up and down using a multichannel pipet, and plates were incubated at 37C for 18 hrs. After incubation, well contents were transferred into flat bottom black 96 well plates (Costar #3358) and centrifuged for 2 minutes at 300 g to allow for better visualization of the cells. Images were taken using Zoe fluorescent cell imager (Biorad).
# CD16a158V [1] = target: T1, CD16a158V (Homo sapiens, UniProt P08637, F176V); assay: Biotinylated Ligand ELISA Assay; type: binding; conditions: Biotinylated CD16a protein at 10 nM
# Procedure, shortened: (§5)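 Neutravidin-coated plates, BSA-blocked, loaded with biotinylated ligands 1 h at 25° C., free sites blocked with 100 μM biotin. Bound protein detected with streptavidin-HRP 1 h at 25° C. and chemiluminescent substrate for 5 min; luminescence read.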
# [2] = test system: CD16a negative THP1 cells; assay: ADCP assay using THP-1 cells; type: cell-based; conditions: beads loaded with test compound at 50 uM; 37C for 18 hrs
# Description: as §1, §2, §3, §4
# CD16a158F [3] = target: T2, CD16a158F (Homo sapiens, UniProt P08637); assay: Biotinylated Ligand ELISA Assay; type: binding; design: purchased Acro Biosystems CDA-H82E8; conditions: Biotinylated CD16a protein at 10 nM
# Procedure, shortened: as §5
# CD16a158F [4] = target: T2, CD16a158F; assay: Microscale Thermophoresis; type: binding; design: purchased Acro Biosystems CDA-H82E8; conditions: read-out: MST-CD16a158F KD
# Description: (§6) Target proteins (poly-histidine tagged, 600 nM) were fluorescently labeled combination with an equal volume of dye (200 nM, His-Tag labeling kit RED-tris-NTA NanoTemper: MO-L008) PBST. The mixture rotated in the dark for 45 min before being spun down at 12000 rpm for 15 min to remove uncomplexed material. The fluorescence of the removed supernatant was adjusted to for a test concentration of 40-80 nM (2× the final measured). Test ligands were prepared across a 12-point dilution series in a 96-well PCR plate at a volume of 20 uL at 2× the concentration desired for testing (0.2% BSA in PBST). The dilution series was then combined with an equal volume of the labeled target at 2× the concentration desired for testing. Capillaries were added to the wells of the combined target/ligand complex and measured by MST. Measurements were taken using a Nanotemper Monolith NT.115, and the data was analyzed using NanoTemper MO.Control software.
# CD16a158V [5] = target: T1, CD16a158V; assay: Microscale Thermophoresis; type: binding; conditions: read-out: MST-CD16a158V KD
# Description: as §6
# [6] = Biotin ELISA, No Protein (Example 55); type: binding; conditions: three replicate values per compound
# Description: (§7) Coat ELISA plates (Costar 3922) using Neutravidin (Thermo 31000) at 5 μg/ml (100 μl/well) for 1 hour at 37° C. Plates were washed 4 times with PBST (PBS, 0.05% Tween 20-200 μl, 1 minute/wash) then blocked using 200 μl 5% bovine serum albumin (BSA, Heat Shock, Fraction V-American Bio AB01088-00100) in PBST for 2 hours at 25° C. with moderate shaking. BSA was removed and plates were washed. Biotinylated ligands diluted in PBSTB (PBST+0.1% BSA) were then added (100 μl/well) and incubated for 1 hour at 25° C. with gentle shaking. Ligands were removed and plates were washed. Any remaining unoccupied neutravidin binding sites were blocked by adding 100 μM Biotin (Fisher BP232-1) (100 μl/well) and incubated for 1 hour at 25° C. with gentle shaking. Plates were then washed. […] Protein was removed and plates were washed. Streptavidin-HRP (Invitrogen 434323) diluted 1:5000 in PBSTB was added (100 μl/well) and incubated for 1 hour at 25° C. with gentle shaking. Wash plates. Substrate (Super Signal ELISA Pico Chemiluminescent Substrate-Thermo 37069) was added (100 μl/well) and plates were incubated for 5 minutes at 25° C. with gentle shaking. Luminescence was then measured on the Biotek Synergy H1 microplate reader.
# (§8) Using similar methods as Examples 47 or 53, interactions with a number of receptors were measured. In some embodiments, “stock” is antibody only, and “control” is an antibody that went through the same procedure except using DMSO only as opposed to a compound. When contacted with targeting moieties such as antibodies in the Examples, compounds, e.g., I-95, I-96, etc. can react through their reactive groups
# CD32a H167 = target: T3, CD32a H167 (Homo sapiens, UniProt P12318); assay: Biotin ELISA, interaction with various receptors (Example 55); type: binding; conditions: three replicate values per compound
# T3 sequence (P12318 36-218 limits assumed): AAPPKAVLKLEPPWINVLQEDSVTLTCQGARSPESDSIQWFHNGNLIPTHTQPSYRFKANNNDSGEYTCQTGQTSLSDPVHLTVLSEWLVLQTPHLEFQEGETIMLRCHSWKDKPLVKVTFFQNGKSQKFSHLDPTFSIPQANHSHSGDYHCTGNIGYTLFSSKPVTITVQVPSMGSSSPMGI
# Description: as §7, §8
# CD16a158V [7] = target: T1, CD16a158V; assay: as above; type: binding; conditions: three replicate values per compound
# Description: as §7, §8
# CD16a158F [8] = target: T2, CD16a158F; assay: as above; type: binding; conditions: three replicate values per compound
# Description: as §7, §8
# CD32b = target: T4, CD32b (Homo sapiens, UniProt P31994); assay: as above; type: binding; conditions: three replicate values per compound
# T4 sequence (P31994 43-310): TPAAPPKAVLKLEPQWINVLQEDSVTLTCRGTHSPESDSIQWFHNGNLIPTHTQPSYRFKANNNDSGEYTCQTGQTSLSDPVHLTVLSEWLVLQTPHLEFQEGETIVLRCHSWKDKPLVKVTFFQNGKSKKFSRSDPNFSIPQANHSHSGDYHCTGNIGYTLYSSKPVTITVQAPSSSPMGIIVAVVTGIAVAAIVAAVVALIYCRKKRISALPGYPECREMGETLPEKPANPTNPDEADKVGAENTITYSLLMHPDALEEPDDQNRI
# Description: as §7, §8
# CD3ed = CD3ed (Homo sapiens, UniProt P04234+P07766); assay: as above; type: binding; conditions: three replicate values per compound
# Description: as §7, §8
# CD32a-R167 = assay: as above; type: binding; conditions: three replicate values per compound
# Description: as §7, §8
# CD64 = CD64 (Homo sapiens, UniProt P12314); assay: as above; type: binding; conditions: three replicate values per compound
# Description: as §7, §8
# CD16a158V [9] = assay: CD16a-MATE ELISA; type: binding; conditions: Carbohydrate Conjugated MATEs; relative to Rituximab; Antibodies tested at 2 ug/mL
# CD16a158F [10] = target: T2, CD16a158F; assay: CD16a-MATE ELISA; type: binding; design: purchased Acro Biosystems CDA-H82E8; conditions: Carbohydrate Conjugated MATEs; relative to Rituximab; Antibodies tested at 2 ug/mL
# Sequence of CD3ed (P07766 23-126 limits assumed): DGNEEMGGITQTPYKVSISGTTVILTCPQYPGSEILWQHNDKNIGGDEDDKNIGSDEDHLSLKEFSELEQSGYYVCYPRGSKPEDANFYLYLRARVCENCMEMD
# Sequence of CD3ed (P04234 22-105 limits assumed): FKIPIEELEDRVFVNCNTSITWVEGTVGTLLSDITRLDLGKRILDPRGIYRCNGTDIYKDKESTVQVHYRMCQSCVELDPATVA
# T1 sequence (P08637 17-208 F176V): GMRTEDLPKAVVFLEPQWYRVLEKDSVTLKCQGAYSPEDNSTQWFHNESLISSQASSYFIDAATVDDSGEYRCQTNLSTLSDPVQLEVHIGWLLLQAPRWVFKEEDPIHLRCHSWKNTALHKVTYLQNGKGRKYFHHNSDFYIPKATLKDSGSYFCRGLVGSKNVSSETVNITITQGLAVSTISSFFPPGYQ
# T2 sequence (P08637 17-208 limits assumed): as the sequence (P08637 17-208 F176V) above, with V160F counted along it
# Sequence of CD64 (P12314 16-374): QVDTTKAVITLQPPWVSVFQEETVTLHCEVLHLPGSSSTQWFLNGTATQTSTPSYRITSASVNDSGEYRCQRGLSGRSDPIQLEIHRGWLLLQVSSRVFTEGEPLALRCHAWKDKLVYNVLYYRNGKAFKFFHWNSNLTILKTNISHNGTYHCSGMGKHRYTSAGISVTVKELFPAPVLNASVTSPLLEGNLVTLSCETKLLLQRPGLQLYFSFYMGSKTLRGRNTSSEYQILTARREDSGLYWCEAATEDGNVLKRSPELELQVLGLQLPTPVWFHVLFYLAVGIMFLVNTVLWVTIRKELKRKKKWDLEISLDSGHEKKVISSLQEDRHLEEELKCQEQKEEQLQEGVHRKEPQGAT
compound,measurement,setting,value
O=C(CCCC[C@@H]1SC[C@@H]2NC(=O)N[C@@H]21)NCCOCCOCCOCCOCCOCCOCCOCCOCCn1cc(-c2cccc(NC(=O)N3CCC4(CC3)NC(=O)N(c3ccccc3)C4=O)c2)nn1 [Compound I-27],ACDP (primary monocytes)-normalized phagocytosis score,primary monocytes,A (a normalized phagocytosis score of >2.0)
same,Biotinylated Ligand ELISA-CD16a158V Binding (RLU),CD16a158V [1],"B (a relative luminescence value (RLU) of 10,000-100,000)"
same,ACDP (CD16a negative THP1 cells)-normalized phagocytosis score,[2],B (a normalized phagocytosis score of 1.5-2.0)
same,Biotinylated Ligand ELISA-CD16a158F Binding (RLU),CD16a158F [3],"B (a relative luminescence value (RLU) of 10,000-100,000)"
same,Kd,CD16a158F [4],100 to 500 nM
O=C(CCCC[C@@H]1SC[C@@H]2NC(=O)N[C@@H]21)NCCOCCOCCOCCOCCOCCOCCOCCOCCn1cc(-c2ccc(C(=O)N3CCC4(CC3)NC(=O)N(Cc3ccccc3)C4=O)cc2)nn1 [Compound I-28],Biotinylated Ligand ELISA-CD16a158V Binding (RLU),CD16a158V [1],"B (a relative luminescence value (RLU) of 10,000-100,000)"
same,Biotinylated Ligand ELISA-CD16a158F Binding (RLU),CD16a158F [3],"B (a relative luminescence value (RLU) of 10,000-100,000)"
same,Kd,CD16a158F [4],100 to 500 nM
COc1ccc(OC)c(N2CC(C(=O)Nc3ccc(-c4cn(CCCC(=O)O)nn4)cc3)CC2=O)c1 (stereo not shown) [Compound I-29],Kd,CD16a158V [5],100 to 500 nM
same,Kd,CD16a158F [4],100 to 500 nM
O=C(CCCC[C@@H]1SC[C@@H]2NC(=O)N[C@@H]21)NCCOCCOCCOCCOCCOCCOCCOCCOCCC(=O)N1CCC(N2CC(=O)N(c3ccccc3)C2=O)CC1 [Compound I-30],Kd,CD16a158F [4],> 1000 nM
O=C(CCCC[C@@H]1SC[C@@H]2NC(=O)N[C@@H]21)NCCOCCOCCOCCOCCOCCOCCOCCOCCn1cc(-c2ccc(NC(=O)C3CC(=O)N(c4cc(F)ccc4F)C3)cc2)nn1 (stereo partly shown) [Compound I-31],Biotinylated Ligand ELISA-CD16a158V Binding (RLU),CD16a158V [1],"C (a relative luminescence value (RLU) of 1,000-10,000)"
same,Biotinylated Ligand ELISA-CD16a158F Binding (RLU),CD16a158F [3],"C (a relative luminescence value (RLU) of 1,000-10,000)"
same,Kd,CD16a158F [4],500 to 1000 nM
same,Biotin ELISA Results No Protein,[6],2129 and 3223 and 1542
same,Biotin ELISA Results CD32a-H167,CD32a H167,3965 and 4173 and 4715
same,Biotin ELISA Results CD16a-158V,CD16a158V [7],2241 and 1940 and 2108
same,Biotin ELISA Results CD16a-158F,CD16a158F [8],1915 and 592 and 1294
same,Biotin ELISA Results CD32b,CD32b,3983 and 3476 and 6119
same,Biotin ELISA Results CD3ed,CD3ed,2134 and 3894 and 2741
same,Biotin ELISA Results CD32a-R167,CD32a-R167,4134 and 3245 and 4916
same,Biotin ELISA Results CD64,CD64,68732 and 70002 and 48114
O=C(CCCC[C@@H]1SC[C@@H]2NC(=O)N[C@@H]21)NCCOCCOCCOCCOCCOCCOCCOCCOCCn1cc(-c2ccc(NC(=O)C3CC(=O)N(c4ccccc4)C3)cc2)nn1 (stereo partly shown) [Compound I-36],ACDP (primary monocytes)-normalized phagocytosis score,primary monocytes,B (a normalized phagocytosis score of 1.5-2.0)
same,Biotinylated Ligand ELISA-CD16a158V Binding (RLU),CD16a158V [1],"C (a relative luminescence value (RLU) of 1,000-10,000)"
same,ACDP (CD16a negative THP1 cells)-normalized phagocytosis score,[2],B (a normalized phagocytosis score of 1.5-2.0)
same,Kd,CD16a158V [5],1 to 100 nM
same,Biotinylated Ligand ELISA-CD16a158F Binding (RLU),CD16a158F [3],"C (a relative luminescence value (RLU) of 1,000-10,000)"
same,Biotin ELISA Results No Protein,[6],−764 and −989 and −154
same,Biotin ELISA Results CD32a-H167,CD32a H167,1138 and 43 and 249
same,Biotin ELISA Results CD16a-158V,CD16a158V [7],−378 and −180 and −282
same,Biotin ELISA Results CD16a-158F,CD16a158F [8],2154 and −1155 and −213
same,Biotin ELISA Results CD32b,CD32b,98 and 1052 and 486
same,Biotin ELISA Results CD3ed,CD3ed,1016 and −29 and −4459
same,Biotin ELISA Results CD32a-R167,CD32a-R167,280 and −228 and −1215
same,Biotin ELISA Results CD64,CD64,54153 and 79621 and 89966
Rituximab (UDP-GalNAz labeled),CD16a158V Normalized* Response (%),CD16a158V [9],C (an ELISA result of 15-25% relative to Rituximab)
same,CD16a158F Normalized* Response (%),CD16a158F [10],C (an ELISA result of 15-25% relative to Rituximab)
